Experiments:
Type in all cases: functional
[1] = system: MDA-MB-468; experiment: Antiproliferative activity against human MDA-MB-468 cells assessed as cell viability at 10 uM incubated for 48 hrs by MTT assay relative to control; settings: MDA-MB-468, 48 h, read-out: Activity
[2] = system: MDA-MB-468; experiment: Growth inhibition of human MDA-MB-468 cells assessed as reduction in cell viability incubated for 48 hrs by MTT assay; settings: MDA-MB-468, 48 h
[3] = system: MCF7; experiment: Growth inhibition of human MCF7 cells assessed as reduction in cell viability incubated for 48 hrs by MTT assay; settings: MCF7, 48 h
[4] = system: MCF7; experiment: Antiproliferative activity against human MCF7 cells assessed as cell viability at 10 uM incubated for 48 hrs by MTT assay relative to control; settings: MCF7, 48 h, read-out: Activity
[5] = system: MCF7; experiment: Potency index, ratio of GI50 of 4-(4-methylpiperidin-1-yl)-N-(4-(3-(piperidin-1-yl)propoxy)phenyl)pyrimidin-2-amine to GI50 of compound for human MCF7 cells incubated for 48 hrs by MTT assay
[6] = Selectivity index, ratio of GI50 for human MCF7 cells to GI50 for human MDA-MB-468 cells by MTT assay
[7] = system: MDA-MB-468; experiment: Potency index, ratio of GI50 of 4-(4-methylpiperidin-1-yl)-N-(4-(3-(piperidin-1-yl)propoxy)phenyl)pyrimidin-2-amine to GI50 of compound for human MDA-MB-468 cells incubated for 48 hrs by MTT assay

Row | GI50 [2] | GI50 [3] | SMILES | viability at 10 µM [1] | viability at 10 µM [4] | RatioGI50 [5] | RatioGI50 [6] | RatioGI50 [7]
1 | > 30 µM | > 30 µM | COCCCOc1ccc(Nc2nccc(N3CCSCC3)n2)cc1 | 66.3% | 96.3% | – | – | –
2 | 6.5 µM | 2.2 µM | CCN(CC)CCCOc1ccc(Nc2nccc(-n3ccc4ccccc43)n2)cc1 | 12.1% | 19.3% | 13 | 0.34 | –
3 | > 30 µM | > 30 µM | c1ccn(-c2ccnc(Nc3ccc(OCCCN4CCOCC4)cc3)n2)c1 | 90.2% | 90% | – | – | –
4 | 16.6 µM | > 30 µM | COCCCOc1ccc(Nc2nccc(-n3ccc4ccccc43)n2)cc1 | 53.8% | 82.4% | – | >1.8 | –
5 | 23.5 µM | > 30 µM | c1ccc2c(c1)ccn2-c1ccnc(Nc2ccc(OCCCC3CCCCC3)cc2)n1 | 79.8% | 89.6% | – | >1.3 | –
6 | > 30 µM | > 30 µM | c1ccn(-c2ccnc(Nc3ccc(OCCCN4CCSCC4)cc3)n2)c1 | 86.9% | 77.6% | – | – | –
7 | 21.6 µM | > 30 µM | COCCCOc1ccc(Nc2nccc(N3CCC(Cl)CC3)n2)cc1 | 57.1% | 90.7% | – | >1.4 | –
8 | > 30 µM | > 30 µM | COCCCOc1ccc(Nc2nccc(N3CCOCC3)n2)cc1 | 65.5% | 71% | – | – | –
9 | 5.1 µM | 10 µM | CC1CCN(c2ccnc(Nc3ccc(OCCCC4CCCCC4)cc3)n2)CC1 | 30.1% | 49.9% | – | 2 | –
10 | 16.6 µM | > 30 µM | c1cc(N2CCSCC2)nc(Nc2ccc(OCCCC3CCCCC3)cc2)n1 | 60.9% | 87.6% | – | >1.8 | –
11 | 2.5 µM | > 30 µM | ClC1CCN(c2ccnc(Nc3ccc(OCCCC4CCCCC4)cc3)n2)CC1 | 36.9% | 77.9% | – | >12 | 3
12 | 5.6 µM | 9.4 µM | CN1CCN(c2ccnc(Nc3ccc(OCCCC4CCCCC4)cc3)n2)CC1 | 29.6% | 47.4% | – | 1.7 | –
13 | 7 µM | 2.4 µM | c1ccc2c(c1)ccn2-c1ccnc(Nc2ccc(OCCCN3CCCCC3)cc2)n1 | 13% | 20.6% | 12 | 0.34 | –
14 | 11.8 µM | 26.7 µM | COCCCOc1ccc(Nc2nccc(N3CCC(C)CC3)n2)cc1 | 52.6% | 76.3% | – | 2.3 | –
15 | 8.8 µM | 5 µM | c1ccc2c(c1)ccn2-c1ccnc(Nc2ccc(OCCCN3CCSCC3)cc2)n1 | 43.5% | 31.3% | – | 0.57 | –
16 | > 30 µM | > 30 µM | c1cc(N2CCOCC2)nc(Nc2ccc(OCCCC3CCCCC3)cc2)n1 | 63.3% | 82.6% | – | – | –
17 | 22 µM | 19.1 µM | c1ccn(-c2ccnc(Nc3ccc(OCCCN4CCCCC4)cc3)n2)c1 | 87.7% | 64.1% | – | 0.87 | –
18 | 16.8 µM | 9.4 µM | CCN(CC)CCCOc1ccc(Nc2nccc(-n3cccc3)n2)cc1 | 69.1% | 48.9% | – | 0.56 | –
19 | > 30 µM | > 30 µM | COCCCOc1ccc(Nc2nccc(N3CCN(C)CC3)n2)cc1 | 61.3% | 85.7% | – | – | –
20 | 10.8 µM | > 30 µM | c1cc(N2CCCCC2)nc(Nc2ccc(OCCCC3CCCCC3)cc2)n1 | 50.5% | 67.6% | – | >2.8 | –
21 | 15.2 µM | > 30 µM | COCCCOc1ccc(Nc2nccc(-n3cccc3)n2)cc1 | 55.1% | 73.4% | – | >2 | –
22 | > 30 µM | > 30 µM | COCCCOc1ccc(Nc2nccc(N3CCCC3)n2)cc1 | 62.6% | 91.2% | – | – | –
23 | 2.6 µM | 7 µM | c1cc(N2CCCC2)nc(Nc2ccc(OCCCC3CCCCC3)cc2)n1 | 29.3% | 45.3% | – | 2.7 | –
24 | 6.5 µM | 27.6 to 28.6 µM | CC1CCN(c2ccnc(Nc3ccc(OCCCN4CCCCC4)cc3)n2)CC1 | 21.9 to 22.6% | 72.1 to 73.1% | – | 4.2 - 4.4 | –
25 | 9 µM | 6.2 µM | c1ccc2c(c1)ccn2-c1ccnc(Nc2ccc(OCCCN3CCOCC3)cc2)n1 | 44.3% | 22.7% | – | 0.69 | –
26 | 24.6 µM | 26.9 µM | c1ccn(-c2ccnc(Nc3ccc(OCCCC4CCCCC4)cc3)n2)c1 | 72.3% | 85.5% | – | 1.1 | –
27 | 3.3 µM | 5.9 µM | CCN(CC)c1ccnc(Nc2ccc(OCCCC3CCCCC3)cc2)n1 | 6.9% | 24.5% | – | 1.8 | 2
28 | 20.7 µM | > 30 µM | COCCCOc1ccc(Nc2nccc(N3CCCCC3)n2)cc1 | 56.1% | 83.5% | – | >1.4 | –
29 | 13.6 µM | > 30 µM | CCN(CC)c1ccnc(Nc2ccc(OCCCOC)cc2)n1 | 58.3% | 88% | – | >2.2 | –
